Reference: article PMC4844368 (The Biochemical journal, 2015)

What was measured:
Aurora A = target: T1, Aurora A (Homo sapiens, UniProt O14965); assay: intrinsic fluorescence thermal shift; type: binding; settings: 1 mM ATP, 10 mM Mg2+, no EDTA, TRB buffer pH 9.0
T1 sequence (O14965 1-403): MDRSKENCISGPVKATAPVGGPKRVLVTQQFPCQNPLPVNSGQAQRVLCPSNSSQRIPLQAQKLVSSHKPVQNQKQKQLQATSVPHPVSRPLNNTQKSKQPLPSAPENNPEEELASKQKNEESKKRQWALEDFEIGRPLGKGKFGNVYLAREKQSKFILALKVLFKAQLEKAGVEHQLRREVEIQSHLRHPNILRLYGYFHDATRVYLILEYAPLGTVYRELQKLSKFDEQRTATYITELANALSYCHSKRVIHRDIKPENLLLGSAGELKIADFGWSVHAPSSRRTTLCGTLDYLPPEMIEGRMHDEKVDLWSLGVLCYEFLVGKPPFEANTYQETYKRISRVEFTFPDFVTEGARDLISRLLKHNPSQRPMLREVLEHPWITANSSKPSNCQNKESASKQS

TRB2 [1] = target: T2, TRB2 (Homo sapiens, UniProt Q92519, K90M); assay: intrinsic fluorescence thermal shift; type: binding; settings: 1 mM ATP, 2 mM EDTA, TRB buffer pH 9.0
T2 sequence (Q92519 1-343 K90M): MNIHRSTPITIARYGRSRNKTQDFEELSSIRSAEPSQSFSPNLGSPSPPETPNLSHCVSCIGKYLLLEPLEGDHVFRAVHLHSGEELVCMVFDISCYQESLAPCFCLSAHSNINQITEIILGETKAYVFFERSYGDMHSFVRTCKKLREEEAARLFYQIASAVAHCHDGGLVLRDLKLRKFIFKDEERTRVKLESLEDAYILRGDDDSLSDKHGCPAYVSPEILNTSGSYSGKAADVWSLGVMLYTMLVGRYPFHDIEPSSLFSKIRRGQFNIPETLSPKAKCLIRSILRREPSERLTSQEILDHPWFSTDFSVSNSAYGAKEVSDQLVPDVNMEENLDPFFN

TRB2 [2] = target: T3, TRB2 (Homo sapiens, UniProt Q92519, K90A); assay: intrinsic fluorescence thermal shift; type: binding; settings: 1 mM ATP, 2 mM EDTA, TRB buffer pH 9.0
T3 sequence (Q92519 1-343 K90A): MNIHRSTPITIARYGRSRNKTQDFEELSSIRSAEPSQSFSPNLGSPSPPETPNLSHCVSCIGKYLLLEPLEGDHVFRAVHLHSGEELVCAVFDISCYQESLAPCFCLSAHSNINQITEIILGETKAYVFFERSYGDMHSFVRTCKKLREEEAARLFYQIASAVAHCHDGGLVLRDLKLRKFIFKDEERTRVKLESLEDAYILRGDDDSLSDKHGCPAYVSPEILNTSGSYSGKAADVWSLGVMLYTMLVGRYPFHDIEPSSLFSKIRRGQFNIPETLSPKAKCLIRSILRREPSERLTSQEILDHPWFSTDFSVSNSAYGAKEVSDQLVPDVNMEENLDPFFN

CASK = target: T4, CASK (Homo sapiens, UniProt O14936); assay: Sypro Orange thermal shift; type: binding; settings: ATP dose series, 2 mM EDTA, TRB buffer pH 9.0
T4 sequence (O14936 1-337): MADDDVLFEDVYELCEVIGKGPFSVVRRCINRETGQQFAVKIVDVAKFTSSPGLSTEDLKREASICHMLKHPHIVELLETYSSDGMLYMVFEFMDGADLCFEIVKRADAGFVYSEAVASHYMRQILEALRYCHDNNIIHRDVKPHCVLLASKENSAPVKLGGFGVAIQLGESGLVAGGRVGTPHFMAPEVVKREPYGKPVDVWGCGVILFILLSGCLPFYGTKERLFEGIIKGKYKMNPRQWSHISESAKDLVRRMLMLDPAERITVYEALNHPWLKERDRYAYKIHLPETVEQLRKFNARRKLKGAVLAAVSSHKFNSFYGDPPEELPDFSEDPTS

TRB2 [3] = target: T5, TRB2 (Homo sapiens, UniProt Q92519); assay: intrinsic fluorescence thermal shift; type: binding; settings: 1 mM ATP, 2 mM EDTA, TRB buffer pH 9.0
T5 sequence (Q92519 1-343): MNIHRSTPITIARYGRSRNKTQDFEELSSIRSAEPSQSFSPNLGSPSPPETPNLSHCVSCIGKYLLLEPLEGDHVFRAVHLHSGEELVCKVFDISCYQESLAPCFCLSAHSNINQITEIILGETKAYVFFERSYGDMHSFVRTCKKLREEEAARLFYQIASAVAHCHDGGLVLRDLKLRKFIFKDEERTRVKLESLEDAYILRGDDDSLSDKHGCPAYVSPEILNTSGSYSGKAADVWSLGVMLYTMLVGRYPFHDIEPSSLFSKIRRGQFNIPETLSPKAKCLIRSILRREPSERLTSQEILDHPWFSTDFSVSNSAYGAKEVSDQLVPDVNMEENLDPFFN

purified protein = substrate: Nc1ncnc2c1ncn2[C@@H]1O[C@H](COP(=O)(O)OP(=O)(O)OP(=O)(O)O)[C@@H](O)[C@H]1O; assay: purified protein; type: biochemical, Homo sapiens; settings: co-substrate histone H3; Mg2+-ATP

In the case of `Nc1ncnc2c1ncn2[C@@H]1O[C@H](COP(=O)(O)OP(=O)(O)OP(=O)(O)O)[C@@H](O)[C@H]1O` [ATP], the ΔTm (Aurora A) is reported as 2.99 °C, the ΔTm (TRB2 [1]) is reported as 1.59 °C and the ΔTm (TRB2 [2]) is reported as 0.23 °C. The ΔTm (CASK) was “both CASK and TRB2 exhibited demonstrable dose-dependent binding to ATP” and the ΔTm (TRB2 [3]) was 3.64 °C.

B1: Aurora A (Homo sapiens) (protein)
chain: MDRSKENCISGPVKATAPVGGPKRVLVTQQFPCQNPLPVNSGQAQRVLCPSNSSQRIPLQAQKLVSSHKPVQNQKQKQLQATSVPHPVSRPLNNTQKSKQPLPSAPENNPEEELASKQKNEESKKRQWALEDFEIGRPLGKGKFGNVYLAREKQSKFILALKVLFKAQLEKAGVEHQLRREVEIQSHLRHPNILRLYGYFHDATRVYLILEYAPLGTVYRELQKLSKFDEQRTATYITELANALSYCHSKRVIHRDIKPENLLLGSAGELKIADFGWSVHAPSSRRTTLCGTLDYLPPEMIEGRMHDEKVDLWSLGVLCYEFLVGKPPFEANTYQETYKRISRVEFTFPDFVTEGARDLISRLLKHNPSQRPMLREVLEHPWITANSSKPSNCQNKESASKQS
B1 gave a Km (purified protein) of 14.3 ± 2.6 µM.
